4 molecules from US5025036A, “Catechol carboxylic acids” (Hoffmann-La Roche Inc., priority 1989, dated 1991) can be followed below.

Structures can show the parent of a compound that is named as a salt.

The target of experiment [1] is T1, Δ^5 -lipoxygenase from rat basophilic leukemia (RBL-1) cells (Rattus norvegicus, UniProt P12527).
T1 construct: The isolated cytosolic fraction was stored in liquid N2 for up to 8 weeks without loss of 5-LO enzyme activity; endogenous in cells; host or cells: RBL-1 cells (ATCC CRL 1378), 113,000×g supernatant (cytosol)
T1 sequence (P12527 1-673): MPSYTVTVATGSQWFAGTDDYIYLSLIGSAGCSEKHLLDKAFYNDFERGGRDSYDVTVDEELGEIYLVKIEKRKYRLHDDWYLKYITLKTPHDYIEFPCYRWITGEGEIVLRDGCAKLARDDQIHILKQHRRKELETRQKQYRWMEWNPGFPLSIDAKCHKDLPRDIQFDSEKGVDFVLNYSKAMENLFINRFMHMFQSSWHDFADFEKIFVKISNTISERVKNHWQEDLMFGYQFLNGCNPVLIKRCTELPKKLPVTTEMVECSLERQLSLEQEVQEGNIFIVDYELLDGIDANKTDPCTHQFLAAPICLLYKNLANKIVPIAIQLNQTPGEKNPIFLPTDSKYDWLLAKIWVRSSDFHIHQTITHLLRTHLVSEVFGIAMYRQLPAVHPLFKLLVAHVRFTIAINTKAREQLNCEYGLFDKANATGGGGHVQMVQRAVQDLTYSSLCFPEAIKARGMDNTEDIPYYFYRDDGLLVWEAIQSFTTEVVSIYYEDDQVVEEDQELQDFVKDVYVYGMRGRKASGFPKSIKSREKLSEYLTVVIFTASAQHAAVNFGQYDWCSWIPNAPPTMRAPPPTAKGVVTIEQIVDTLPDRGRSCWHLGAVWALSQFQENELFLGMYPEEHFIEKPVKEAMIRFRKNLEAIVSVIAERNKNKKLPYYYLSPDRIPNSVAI
Put plainly: In vitro test for Δ^5-lipoxygenase inhibitors (5-HETE radioimmunoassay). Conditions: for IC50: RBL-1 5-LO, 5-HETE formation, read-out: Inhib. of Δ^5 Lipoxygenase IC50. The class given is biochemical. The method, then: RBL-1 cells (CRL 1378) were obtained from the American Type Culture Collection, Rockville, MD. DMEM and glutamine were purchased from Flow Labs, McLean, Va. FBS (Gibco, Grand Island, N.Y.) was heat-inactivated for 1 hour at 56° C. Reagents for protein determinations were obtained from Biorad, Rockville Center, N.Y. Arachidonic acid (approx. 99%), ATP (disodium salt), BHT, dextran (clinical grade), tetrasodium EDTA, gelatin, gentamycin sulfate solution, reduced glutathione, 1 M HEPES buffer, indomethacin, NaCl, reduced NADPH, Trizma 7.2, and Trizma 8.5 were purchased from Sigma Chemical, St. Louis, Mo. CaCL2 dihydrate, Norit A charcoal, and citric acid monohydrate were obtained from Fisher Scientific, Pittsburgh, Pa. […] A synthetic 5-HETE standard was supplied by Dr. M. Rosenberger, Dept. of Medicinal Chemistry, Hoffmann La-Roche, Nutley, N.J.; [see Corey, E. J., and Hashimoto, S. (1981) Tet. […] Approximately 7-9 days after thawing, RBL-1 cells growing in log phase were seeded at a density of 7500 viable cells/ml in a closed 89-liter spinner flask. […] RBL-1 cells were harvested by centrifugation at 4° C. at 1500×g for 10 minutes and were washed 3 times with ice cold 0.05M tris-hCl, pH 7.2, tetrasodium EDTA (buffer 1). The cells were washed last in 0.05M Tris-HCl containing 14 μM indomethacin, 1 mM glutathione, 1.5 mM NaCl, and 1 mM tetrasodium EDTA (buffer 2), resuspended at a density of 5×108'/ml approximately 10 ml) and disrupted manually at 4° C. using a 40 ml Dounce (type A pestle) homogenizer. After 5 minutes of homogenization, 95% cell lysis was confirmed by phase contrast microscopy. The broken cells were diluted 1:2 with buffer 2 and centrifuged at 12,380×g for 10 minutes at 4° C. to pellet cellular debris and granules. The 12,380×g supernatant was centrifuged at 113,000×g for 60 minutes to pellet microsomes. The high-speed supernatant (5.9±0.48 mg/ml protein) was frozen immediately in 1 ml aliquots using a dry ice/acetone bath. The isolated cytosolic fraction was stored in liquid N2 for up to 8 weeks without loss of 5-LO enzyme activity. Compounds were dissolved at 25 mM concentration in DMSO, then diluted to final concentrations using 95% ethanol. For a typical enzyme assay, the partially purified 5-LO preparation was preincubated with drug or vehicle for 10 minutes at 30° C. The assay tubes were then transferred at a 37° C. water bath where they received arachidonic acid (8.25 μM final concentration) to initiate 5-LO activity. […] The samples were immediately cooled on ice and neutralized by dilution with 0.05M Tris-HCl, pH 8.5, which contained 25 mg/1 BHT. A boiled cytosol control was placed at the end of each assay to emasure non-enzymatic oxidation of arachidonic acid. […] Under the assay conditions described, the 5-LO catalyzed the conversion of arachidonic acid to 5-HPETE which, as a consequence of peroxidase activity, was reduced to 5-HETE. A specific radioimmunoassay was employed to quantitate the amount (pmoles) of 5-HETE formed during the enzyme reaction. To prepare the immunogen, Dr. M. Rosenberger (Dept. of Medicinal Chemistry) converted the racemic 5-HETE lactone (Corey, E. J., and Hashimoto, S. (1981) Tet. Letters, 22, 299-302) to its hydrazine derivative. The hydrazide was conjugated to thiolated Keyhole Limpet Hemocyanin (Young, […]., and Rokach, J. (1982) Prostaglandins 23, 603-613) using N-ethyl-maleimide as previously described for LTB4 by (Young, R., N, Zomboni, R. and Rokach, J. 91983) Prostaglandins, 26, 605-613). New Zealand White rabbits received multiple intradermal injections on their backs with […] conjugate emulsified in complete Freund's adjuvant. A schedule of injections reported by Salmon (Salmon, J. A. (1978) Prostaglandins, 15, 383-397) was followed. After the monthly i.p. booster injections, blood was obtained from the marginal ear vein 5-7 days later and assessed for antibody titer. […]

The subject of the next experiment is Carrageenan pleurisy. The experiment can be described thus: Carrageenan Pleurisy Test (In Vivo). Also on record: species or system male Lewis rats. Conditions: Rattus norvegicus, po; at 100 mg/kg p.o; read-out: Rat Carrageenan Pleurisy % Inhib. of Exudate Volume. Here is the method: The animals utilized in these studies were male Lewis rats (Charles River Breeding Laboratories) weighing between 230-250 g. […] At 5 or 24 hours after CG injection, the rats were killed by decapitation, exsanguinated, and the pleural cavity exposed by cutting the ribs on both sides of the sternum. The exudate fluid was removed from the pleural cavity with disposable plastic pipettes and its volume quantitated. The pleural cavity was then washed once with phosphate buffered saline containing fetal bovine serum (1:1) and the washings combined with the exudate. The total number of cells in the pleural cavity was quantitated using a Coulter Counter (Model ZM) adjusted to exclude any contaminating RBC. (Published in "Plant Flavonoids in Biology & Medicine: Biochemical, Pharmacological and Structure-Activity Relationships" p. 231-242 (1986) Alan R. Liss, Inc.)

Another experiment concerns ear edema. Put plainly: Mouse Ear Edema Test (In Vivo), arachidonic acid. As to conditions: topical, 1 h, at 1 mg topically. On the set-up: species or system CD-1 male mice. The source says: Invest. Dermatol. 80:48 (1983) and Hames, Opas and Bonney, "Arachidonic Acid Metabolites in Mouse Ear Edema" Advances in Inflammation Research, 11:57 (1986). […] CD-1 male mice weighing 15 to 25 g were employed, and they were designated as follows: (1) Control Group, in which no arachidonic acid or test compound was to be applied, (2) Arachidonic Acid-Treated Group, in which no test compound was to be applied, and (3) Treated Group, in which the test compound was to be applied first, followed by the application of arachidonic acid. In the case of the Group (3) animals, the test compound, dissolved in acetone, was applied to the dorsal surface of the right ear of the mouse with a 25-microliter pipettor, with the dose of the test compound being varied. After 0.5 hours in some cases and 4 hours in others, the arachidonic acid was topically applied in the same manner as above to the pretreated ear areas. In each case of arachidonic acid application, an amount of 0.5 mg dissolved in 25 microliters of acetone was used. After 1 hour, the mice were sacrificed by carbon dioxide inhalation. A 6 mm-diameter standard biopsy punch was used to obtain a uniform tissue sample from the ear of each mouse so treated, and the tissue samples were weighed to the nearest 0.1 mg. The percent inhibition of ear edema formation was calculated as follows: [formula]

In general, inhibition refers to the percentage by which the read-out fell short of the control. Turning to `CCCc1c(OCCCCCCCCc2cccc(O)c2O)ccc(C(C)=O)c1O` [1-[2-hydroxy-4-[8-(2,3-dihydroxyphenyl)octyloxy]-3-propylphenyl]ethanone], the inhibition at 0.1 µM in experiment [1] (read-out: Inhib. of Δ^5 Lipoxygenase, % inhibition at 0.1 μM) was 95%. Further, the inhibition in vivo at 100 mg/kg in the experiment with Carrageenan pleurisy stood at 0%. For the same molecule, in the experiment on ear edema, the inhibition in vivo at 1 mg was determined as 0%.
What is called IC50 is the concentration at which inhibition is half-maximal. On to `CCCc1cc(C(=O)O)ccc1OCCCCCCc1cccc(O)c1O` [4-[6-(2,3-Dihydroxyphenyl)hexyloxy]-3-propylbenzoic acid], for which the IC50 in experiment [1] stood at 20 nM. Also, the inhibition in vivo at 100 mg/kg in the experiment on Carrageenan pleurisy was 0%. The inhibition in vivo at 1 mg in the experiment with ear edema stood at 52%.
For `CCCc1cc(C(=O)O)cc(CCC)c1OCCCCCCc1cccc(O)c1O` [4-[6-(2,3-Dihydroxyphenyl)hexyloxy]-3,5-dipropylbenzoic acid], in experiment [1], the IC50 is 460 nM. In the experiment on ear edema, the inhibition in vivo at 1 mg is 59%.
As for `CCCc1c(OCCCCCCc2cccc(O)c2O)ccc(C(=O)OCCN(CC)CC)c1O` [4-[6-(2,3-Dihydroxyphenyl)hexyloxy]-2-hydroxy-3-propylbenzoic acid [2-(diethylamino)ethyl]ester hydrochloride], in experiment [1], the IC50 is 670 nM. The inhibition in vivo at 100 mg/kg in the experiment on Carrageenan pleurisy was 42%. The same molecule had an inhibition in vivo at 1 mg with ear edema of 48%.
